Data reported in patent US7169970B2, “Herbicide resistant plants” (priority 2000, dated 2007).
Structures can show the parent of a compound that is named as a salt.

Experiments:
Type in all cases: biochemical
resistant forms of EPSPS = assay: EPSPS assays of plant extracts in the presence of glyphosate, resistant enzyme; conditions: 0.1 mM N-(phosphonomethyl)glycine; 0.1 mM 14C-PEP; 0.75 mM shikimate-3-Pi; estimated
Description: (§1) Assays are carried out generally according to the radiochemical method of Padgette et al 1987 (Archives of Biochemistry and Biophysics, 258(2) 564–573) with K+ions as the major species of cationic counterion. Assays in a total volume of 50 μl, in 50 mM Hepes(KOH) pH 7.0 at 25° C., contain purified enzyme or plant extract (see below) diluted appropriately in Hepes pH 7.0 containing 10% glycerol, and 5 mM DTT, ^14C PEP either as variable-substrate (for kinetic determinations) or fixed at 100 or 250 μM and shikimate 3 Phosphate (K+ salt) at 0.75 or 2 mM as indicated. Optionally, for assays of crude plant extracts, assays also contain 5 mM KF and/or 0.1 mM ammonium molybdate. Assays are started with the addition of ^14C phosphoenolpyruvate (cyclohexylammonium+salt) and stopped after 2–10 minutes (2 minutes is preferable) with the addition of 50 μl of a solution of 1 part 1M acetic acid and 9 parts ethanol. […] Apparent Km and Vmax values are determined by least squares fit to a hyperbola with simple weighting using the Grafit 3.09b from Erithacus Software Ltd. Km values are generally ascertained using 8–9 concentrations of variable substrate ranging from Km/2–10 Km and triplicate points. […]

[1] = test system: sensitive w/t form of EPSPS; assay: EPSPS assays of plant extracts in the presence of glyphosate, sensitive w/t enzyme; conditions: 0.1 mM N-(phosphonomethyl)glycine; 0.1 mM 14C-PEP; 0.75 mM shikimate-3-Pi
Description: as §1

[2] = target: T1, mutant Brassica napus EPSPS (Brassica napus, UniProt P17688, P178S/T174I); assay: Radiochemical EPSPS assay of purified mutant Brassica napus EPSPS
T1 construct: The mature mutant Brassica napus EPSPS protein is purified; initiating Met (N); made in house; host or cells: E. coli BL21 (DE3) RP, vector pET24a
T1 sequence (P17688 73-516 T174I/P178S): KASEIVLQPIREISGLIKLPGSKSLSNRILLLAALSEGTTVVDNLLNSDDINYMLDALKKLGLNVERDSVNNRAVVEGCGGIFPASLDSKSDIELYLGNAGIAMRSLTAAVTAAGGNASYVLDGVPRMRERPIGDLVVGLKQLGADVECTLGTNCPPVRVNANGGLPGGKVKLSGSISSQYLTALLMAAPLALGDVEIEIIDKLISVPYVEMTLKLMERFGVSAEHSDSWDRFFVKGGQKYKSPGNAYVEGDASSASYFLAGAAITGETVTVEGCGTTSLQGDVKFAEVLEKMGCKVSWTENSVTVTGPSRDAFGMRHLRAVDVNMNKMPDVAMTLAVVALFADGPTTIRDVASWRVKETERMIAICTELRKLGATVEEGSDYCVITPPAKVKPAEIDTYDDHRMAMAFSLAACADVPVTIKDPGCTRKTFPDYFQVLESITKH
Description: as §1, with “^14C PEP either as variable-substrate (for kinetic determinations) or fixed at 100 or 250 μM and shikimate 3 Phosphate” left out
The mature mutant Brassica napus EPSPS protein is purified at ˜4 C as follows. […] EPSPS-containing fractions detected on the basis of EPSPS enzyme activity are combined and loaded onto an xk16 column containing 20 ml of HP Q-Sepharose equilibrated with S200 buffer. […]

| SMILES | inhibition of resistant forms of EPSPS (resistant forms of EPSPS) [%] | inhibition of sensitive w/t EPSPS [1] [%] | IC50 ([2]; at 40 μM PEP, 2 mM shikimate-3-Pi, purified enzyme, read-out: IC50 value for the potassium salt of glyphosate) [µM] | Ki ([2]; purified mutant EPSPS, read-out: estimated Ki value for potassium glyphosate) [µM] |
| --- | --- | --- | --- | --- |
| O=C(O)CNCP(=O)(O)O [N-(phosphonomethyl)glycine] | < 8.5 | > 98 |  |  |
| O=C(O)CNCP(=O)(O)O [potassium salt of glyphosate] |  |  | ~600 | ~450 |
